Assay results from patent US9663789B2, “PME-1 as a biomarker to predict and diagnose endometrial and breast cancer and gene silencing of PME-1 to inhibit epithelial to mesenchymal transition” (MEDICAL DIAGNOSTIC LABORATORIES, LLC, priority 2013, dated 2017).
Entries after “also recorded” stand apart in the source; their conditions may differ.

Experiments:
Type in all cases: cell-based, human
[1] = test system: PP2A; experiment: PP2A phosphatase assay on RL95-2 whole cell lysates; conditions: RL95-2 cells, vs control (non-targeting)
Excerpt: Because PME-1 is a known inhibitor of PP2A, we confirmed in this study that depletion of PME-1 by siRNA led to an increase in PP2A activity in cells. To do so, we treated RL95-2 cells with either non-targeting siRNA (Control) or siRNA targeted against PPME1 (e.g., SEQ ID NO: 5 and SEQ ID NO: 6). PP2A activity was monitored using a phosphatase assay (R&D Systems Duo IC Set phosphatase assay kit). In the phosphatase assay, we used […] of whole cell extract and followed the manufacturer's recommendations.
Whole cell lysates were used with the DuoSet IC PP2A Phosphatase Assay Kit (R&D Systems). Procedure was carried out as per kit instructions with 500 μg protein and the absorbance was measured at 620 nm. The assay was repeated twice with similar results.

[2] = test system: PPME1 mRNA; experiment: qRT-PCR of PME-1 (PPME1) expression in RL95-2 cells; conditions: RL95-2 cells stably expressing shRNA, vs shSCR
Experimental: (§1) Using RL95-2 endometrial cancer cells, we overexpressed PME-1 (FIG. 21A) or depleted PME-1 with shRNA targeted to PME-1 (SEQ ID NO: 2) (FIG. 21B) and confirmed that PME-1 was appropriately expressed.
(§2) Total RNA was extracted with Qiagen RNAEasy kit from RL95-2 cells. cDNA was synthesized using 500 ng-1 μg of RNA and SuperScript VILO c-DNA mix (Life Technologies). Taqman probes and PCR-mix were purchased from Life Technologies. All samples were run in triplicates. Results are representative of three independent experiments in which genes of interest were normalized to the house-keeping gene, 18S or GAPDH, where fold-change was calculated using the ddCt method.

[3] = test system: RL95-2 cells; experiment: Foci formation assay, RL95-2 cells; conditions: RL95-2 cells expressing shRNA, compared to control cells
Experimental: A foci forming assay was used to monitor cell growth. Equal amounts of tumor cells were plated and they were allowed to grow for a determined period of time (see Materials and Methods section for details). The foci that were formed were then stained with the crystal violet dye. Cells were washed 3 times with PBS prior to visualization. Numbers of foci were counted and results were averaged among different experiments.
To determine if the loss of active PME-1 accounted for the observed decrease in foci formation, we first treated RL95-2 cells with siRNA against the 3′-UTR of PPME1 (SEQ ID NO: 5 and SEQ ID NO: 6) to decrease endogenous levels of PME-1. […] The S156A PME-1 mutant is not capable of de methylaing its target, PP2A.
1,000 cells were plated in a six well tissue culture dish in selection media (to include 5 μg/ml puromycin) (InvivoGen). Cells were allowed to adhere and grow in a 5% CO2, 37° C. incubator for 10 to 14 days. Media was replaced every fourth day. Cells were stained with 1% crystal violet (Sigma Aldrich) for five minutes and rinsed with PBS. Colonies were counted and data is presented as the percentage of change compared to the control. All Experiments were repeated at least three times.

[4] = test system: RL95-2 cells; experiment: BrDU incorporation assay, RL95-2 cells; conditions: RL95-2, compared to scrambled shRNA control set to 100%
Experimental: To confirm our foci formation data that altering PME-1 levels in endometrial cancer cells affect their rate of cell proliferation, we conducted a BrDU incorporation assay. BrDU is incorporated into newly synthesized DNA and can be detected with antibodies; thus, increased BrDU incorporation correlates with an increased level of proliferation.
The BrDU Incorporation assay was completed with RL95-2 cell lines in media supplemented with 2.5 μg/ml puromycin. Cells were plated at 0.5×10^4 cells per well into a 96 well dish with 0% FBS and allowed to settle for 24 hours. The assay was completed as per kit instructions (Roche, Cell Proliferation ELISA, BrdU colorimetric cat. #11647229001). Briefly, 10 uM BrdU was added to the cells, 24 hours later cells were fixed and denatured with FixDenat from the kit and allowed to incubate with anti-BrdU antibody for up to two hours. Following the incubation and addition of the kit substrate, absorbances were read using FluoStar Galaxy.

[5] = test system: ERK; experiment: Western analysis of phospho-ERK in RL95-2 cells; conditions: RL95-2, compared to control cells
Experimental: (§3) 15 μg of protein was used for western analysis. PME-1 antibody (Santa Cruz) and COXIV (Cell Signaling Technologies) were used for detection of proteins and the blots were developed using chemiluminescence (Pierce ECL Western Blotting Substrate—Thermo Scientific) on the GE ImageQuant LAS 4000. For analysis of Akt, ERK, and β-catenin signaling in tissue culture, western analyses were completed as follows. RL95-2 cells stably infected with lentivirus expressing constructs were selected with puromycin (Invivogen). The cells were incubated with either 50 μM Akt inhibitor (LY 294002, Cell Signaling Technologies) or 40 μM ERK inhibitor (V0126, Cell Signaling Technologies) for 1-2 hours at 37° C. 1.5× Laemelli buffer (0.5 M Tris pH6.8, […], 10% sodium dodecyl sulfate, 100 mM EDTA) was used to prepare cell lysates. 20 μg of protein was used for western analysis. Primary antibodies used were: P-Akt (Ser473), P-Akt (Thr308), pan-Akt, P-ERK (Thr202/204), total ERK (Cell Signaling Technologies), PME-1 (Santa Cruz), phospho-β-catenin (Ser45, Cell Signaling Technologies), phospho-β-catenin (Ser33/37/Thr41, Cell Signaling Technologies), β-catenin (Abcam), DcR2 (Abcam), and GAPDH (Abcam). All experiments were repeated several times with similar results.

[6] = test system: Akt; experiment: Western analysis of phospho-Akt in RL95-2 cells; conditions: RL95-2, PME-1 knocked down
Experimental: We observed a similar trend for the Akt signaling pathway. There was an increase in phosphorylation of Akt on threonine 308 (T308) when PME-1 was over-expressed compared to control. […] PME-1 over-expression specifically increases the phosphorylation of Akt on T308, but not serine 473 (S473).
as §3, with “Primary antibodies used were: P-Akt (Ser473), P-Akt (Thr308), pan-Akt, P-ERK (Thr202/204), total ERK (Cell Signaling Technologies), PME-1 (Santa Cruz), phospho-β-catenin (Ser45, Cell Signaling Technologies), phospho-β-catenin (Ser33/37/Thr41, Cell Signaling Technologies), β-catenin (Abcam), DcR2 (Abcam), and GAPDH (Abcam). All experiments were repeated several times with similar results.” left out

[7] = test system: SFRP1; experiment: qRT-PCR of SFRP1 expression in RL95-2 cells; conditions: RL95-2, qRT-PCR normalized to 18S
Experimental: as §1, §2

[8] = test system: WNT3A; experiment: qRT-PCR of WNT3A expression in RL95-2 cells; conditions: RL95-2, qRT-PCR normalized to 18S
Experimental: as §1, §2

Substance: shRNA (SEQ ID NO: 2): lentiviral shRNA against PPME1, target sequence SEQ ID NO: 2 GCAGCGATTATTAGTAGAGTT, bp 289-309; hairpin SEQ ID NO: 8 (CCGGGCAGCGATTATTAGTAGAGTTCTCGAGAACTCTACTAATAATCGCTGCTTTTT; listed as Homo sapiens)
- increase in PP2A phosphatase activity [1]: 30 fold
- PME-1 knocked down (qRT-PCR, normalized to 18S) [2]: > 50%
- decrease in foci [3]: 75%
- decrease in BrDU incorporation [4]: 40%
- phospho-ERK (Western) [5]: decrease in phospho-ERK
- phosphorylation of Akt (Western) [6]: decrease in phosphorylation of Akt
- SFRP1 expression [7]: significantly increased; also recorded: significant increase in SFRP1 expression
- WNT3A expression [8]: significantly decreased
